Data on eleven compounds can be found in patent US10093630B2, “Pyrazole compounds and methods of making and using same” (ABIDE THERAPEUTICS, INC., priority 2014, dated 2018).

Where two headings read alike, the source gives them in different places.

For orientation: inhibition means the share of the control response that was lost under treatment. Broadly, the IC50 is the concentration needed to halve the response being measured.

Common to all, as to assay: In vitro competitive activity-based protein profiling (gel-based, FP-Rh or HT-01 probe)
Common to all, as to assay type: biochemical

One experiment concerns the target T1, ABHD6 (Mus musculus, UniProt Q8R2Y0).
T1 construct: Proteomes (mouse brain membrane fraction or cell lysates); from tissue; host or cells: mouse brain membrane fraction (or cell lysates, not specified)
T1 sequence (Q8R2Y0 1-336): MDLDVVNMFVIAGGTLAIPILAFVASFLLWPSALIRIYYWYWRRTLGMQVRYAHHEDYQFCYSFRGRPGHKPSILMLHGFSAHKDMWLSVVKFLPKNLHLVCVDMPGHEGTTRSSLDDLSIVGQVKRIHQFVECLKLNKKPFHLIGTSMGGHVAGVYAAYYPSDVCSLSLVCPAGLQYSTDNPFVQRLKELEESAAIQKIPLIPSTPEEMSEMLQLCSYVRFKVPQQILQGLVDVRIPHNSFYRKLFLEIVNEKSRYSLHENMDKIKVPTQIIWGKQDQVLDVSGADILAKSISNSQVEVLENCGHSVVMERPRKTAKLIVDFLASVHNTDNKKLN
As to conditions: for inhibition at 1 µM: 1 μM inhibitor, read-out: % Inhibition at 1 μM, C = ABHD6; for inhibition at 10 µM: 10 μM inhibitor, read-out: % Inhibition at 10 μM, C = ABHD6; for IC50: mouse brain membrane fraction or cell lysates, 30 min preincubation at 37° C., read-out: Mouse (IC50 value, nM) ABHD6. In a few lines:
(§1)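 Gel-based read-out: fluorescent band intensity after SDS-PAGE reflected remaining hydrolase activity. Inhibitors were preincubated 30 min at 37° C with 1.0 mg/mL mouse brain membrane or lysate proteome before a further 30 min at 37° C with FP-Rh or HT-01 probe.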

A further experiment addresses T2, FAAH (Mus musculus, UniProt O08914).
T2 construct: Proteomes (mouse brain membrane fraction or cell lysates); from tissue; host or cells: mouse brain membrane fraction (or cell lysates, not specified)
T2 sequence (O08914 1-579): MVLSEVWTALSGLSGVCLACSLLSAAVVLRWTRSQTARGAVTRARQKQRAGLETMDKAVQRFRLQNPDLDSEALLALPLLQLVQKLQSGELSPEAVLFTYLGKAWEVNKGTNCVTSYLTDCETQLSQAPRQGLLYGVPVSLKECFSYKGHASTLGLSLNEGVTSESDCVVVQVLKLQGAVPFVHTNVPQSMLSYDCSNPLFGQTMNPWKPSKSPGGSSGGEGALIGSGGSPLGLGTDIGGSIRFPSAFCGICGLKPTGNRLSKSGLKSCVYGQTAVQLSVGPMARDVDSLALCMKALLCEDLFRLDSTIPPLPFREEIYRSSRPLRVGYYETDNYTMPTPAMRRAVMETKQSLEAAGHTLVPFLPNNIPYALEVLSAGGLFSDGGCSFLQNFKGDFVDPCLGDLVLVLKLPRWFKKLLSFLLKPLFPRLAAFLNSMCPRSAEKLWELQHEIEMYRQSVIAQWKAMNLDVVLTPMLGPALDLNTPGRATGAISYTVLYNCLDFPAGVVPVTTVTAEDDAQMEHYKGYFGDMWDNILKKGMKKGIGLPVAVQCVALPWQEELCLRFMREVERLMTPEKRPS
As to conditions: for inhibition at 1 µM: 1 μM inhibitor, read-out: % Inhibition at 1 μM, B = FAAH; for inhibition at 10 µM: 10 μM inhibitor, read-out: % Inhibition at 10 μM, B = FAAH; for IC50: mouse brain membrane fraction or cell lysates, 30 min preincubation at 37° C., read-out: Mouse (IC50 value, nM) FAAH. In a few lines:
as §1

Another experiment deals with T3, MAGL (Mus musculus, UniProt O35678).
T3 construct: Proteomes (mouse brain membrane fraction or cell lysates); from tissue; host or cells: mouse brain membrane fraction (or cell lysates, not specified)
T3 sequence (O35678 1-303): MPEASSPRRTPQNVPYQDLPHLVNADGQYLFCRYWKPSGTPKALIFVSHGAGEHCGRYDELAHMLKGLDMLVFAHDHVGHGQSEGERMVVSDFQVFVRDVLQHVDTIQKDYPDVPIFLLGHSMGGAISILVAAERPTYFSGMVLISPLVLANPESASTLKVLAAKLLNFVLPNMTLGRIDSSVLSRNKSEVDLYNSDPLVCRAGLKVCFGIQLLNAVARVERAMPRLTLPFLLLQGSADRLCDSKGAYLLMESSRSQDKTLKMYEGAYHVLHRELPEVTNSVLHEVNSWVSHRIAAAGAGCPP
As to conditions: for inhibition at 1 µM: 1 μM inhibitor; for inhibition at 10 µM: 10 μM inhibitor; for IC50: mouse brain membrane fraction or cell lysates, 30 min preincubation at 37° C., read-out: Mouse (IC50 value, nM) MAGL. In a few lines:
as §1

A further experiment has as its target T4, PLA2G7 (Mus musculus, UniProt Q60963).
T4 construct: Proteomes (mouse brain membrane fraction or cell lysates); from tissue; host or cells: mouse brain membrane fraction (or cell lysates, not specified)
T4 sequence (Q60963 22-440): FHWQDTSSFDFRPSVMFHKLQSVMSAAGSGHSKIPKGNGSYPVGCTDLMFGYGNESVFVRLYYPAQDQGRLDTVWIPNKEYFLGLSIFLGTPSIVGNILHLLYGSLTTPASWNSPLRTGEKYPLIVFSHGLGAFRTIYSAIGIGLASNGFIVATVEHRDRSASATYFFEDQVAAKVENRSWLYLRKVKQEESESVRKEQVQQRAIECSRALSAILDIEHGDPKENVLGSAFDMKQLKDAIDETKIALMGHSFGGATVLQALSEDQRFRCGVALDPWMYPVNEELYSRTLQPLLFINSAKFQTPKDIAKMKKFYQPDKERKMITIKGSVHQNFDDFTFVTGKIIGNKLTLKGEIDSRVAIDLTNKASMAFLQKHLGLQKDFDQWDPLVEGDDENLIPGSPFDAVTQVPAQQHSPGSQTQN
As to conditions: for inhibition at 1 µM: 1 μM inhibitor, read-out: % Inhibition at 1 μM, D = PLA2G7; for inhibition at 10 µM: 10 μM inhibitor, read-out: % Inhibition at 10 μM, D = PLA2G7. In a few lines:
as §1

In the case of `CCN(Cc1cccc(N2CCOCC2)c1)C(=O)n1cc(C)cn1` [Example 262, N-Ethyl-4-methyl-N-(3-morpholinobenzyl)-1H-pyrazole-1-carboxamide], the inhibition at 1 µM at ABHD6 (gel-based competitive ABPP), on FAAH (gel-based competitive ABPP), at MAGL (gel-based competitive ABPP) and at PLA2G7 (gel-based competitive ABPP) was < 25% throughout.
Consider `CN1CCCN(C(=O)n2cc(C(F)(F)F)cn2)CC1` [Example 156, (4-Methyl-1,4-diazepan-1-yl)(4-(trifluoromethyl)-1H-pyrazol-1-yl)methanone], for which the inhibition at 1 µM at ABHD6, at FAAH, on MAGL and at PLA2G7 was < 25% throughout. Further, the inhibition at 10 µM at ABHD6 is < 25%; at FAAH, 25 to 75%; on MAGL, < 25%; on PLA2G7 it was > 75%.
For the compound `O=C(N1CCN(c2ccc(Cl)cc2)CC1)n1cc(C(F)(F)F)cn1` [Example 229, (4-(4-Chlorophenyl)piperazin-1-yl)(4-(trifluoromethyl)-1H-pyrazol-1-yl)methanone], the inhibition at 1 µM on ABHD6, on FAAH, on MAGL and on PLA2G7 was > 75% each time. The inhibition at 10 µM at ABHD6, at FAAH, at MAGL and at PLA2G7 was > 75% throughout.
Turning to `CCN(Cc1ccc(C)cc1)C(=O)n1cc(Cl)cn1` [Example 133, 4-Chloro-N-ethyl-N-(4-methylbenzyl)-1H-pyrazole-1-carboxamide], the inhibition at 1 µM was < 25% at ABHD6, > 75% on FAAH, < 25% on MAGL and < 25% on PLA2G7. Also, the inhibition at 10 µM was > 75% on ABHD6, > 75% on FAAH, > 75% on MAGL and < 25% at PLA2G7. For the same compound, the concentration for half-maximal inhibition (IC50) was > 1000 nM on ABHD6, < 100 nM at FAAH and > 1000 nM at MAGL.
Regarding `Cc1cc(N2CCN(C(=O)n3cc(-c4ccccc4)cn3)CC2)c2ccccc2n1` [Example 207, (4-(2-Methylquinolin-4-yl)piperazin-1-yl)(4-phenyl-1H-pyrazol-1-yl)methanone], the inhibition at 1 µM is > 75% on ABHD6, > 75% on FAAH, 25 to 75% on MAGL and 25 to 75% at PLA2G7. Further, the inhibition at 10 µM on ABHD6, on FAAH, at MAGL and at PLA2G7 was > 75% each time.
For `Cc1cc(-c2ccccc2)ccc1CN1CCN(C(=O)n2cc(C(=O)N3CCC3)cn2)CC1` [Example 93, Azetidin-1-yl(1-(4-((3-methyl-[1,1′-biphenyl]-4-yl)methyl)piperazine-1-carbonyl)-1H-pyrazol-4-yl)methanone], the inhibition at 1 µM at ABHD6 is > 75%; at FAAH, > 75%; on MAGL it was > 75%; on PLA2G7, < 25%. In addition, the inhibition at 10 µM at ABHD6, at FAAH, on MAGL and on PLA2G7 was > 75% each time. The IC50 was 100 to 1000 nM on ABHD6, < 100 nM at FAAH and 100 to 1000 nM on MAGL.
As for `O=C(NCc1ccc2ccccc2c1)n1cccn1` [Example 43, N-(Naphthalen-2-ylmethyl)-1H-pyrazole-1-carboxamide], the inhibition at 1 µM on ABHD6, at FAAH, at MAGL and on PLA2G7 was < 25% each time. The inhibition at 10 µM at ABHD6 is < 25%; at FAAH, > 75%; at MAGL, 25 to 75%; at PLA2G7 it was < 25%.
Take `CCN(Cc1ccc(C)cc1)C(=O)n1cc(C(F)(F)F)cn1` [Example 256, N-Ethyl-N-(4-methylbenzyl)-4-(trifluoromethyl)-1H-pyrazole-1-carboxamide]: the inhibition at 1 µM is < 25% at ABHD6 (gel-based competitive ABPP), > 75% at FAAH (gel-based competitive ABPP), 25 to 75% at MAGL (gel-based competitive ABPP) and < 25% at PLA2G7 (gel-based competitive ABPP). Also, the 50% inhibitory concentration (IC50) on ABHD6 is > 1000 nM; at FAAH, < 100 nM; on MAGL, > 1000 nM; at PLA2G7 (mouse brain membrane fraction or cell lysates, 30 min preincubation at 37° C.) it was > 1000 nM.
Turning to `Cc1cnn(C(=O)N2CCN(Cc3cccc(OCc4ccccc4)c3)CC2)c1` [Example 297, (4-(3-(Benzyloxy)benzyl)piperazin-1-yl)(4-methyl-1H-pyrazol-1-yl)methanone], the inhibition at 1 µM was > 75% at ABHD6 (gel-based competitive ABPP), > 75% on FAAH (gel-based competitive ABPP), > 75% on MAGL (gel-based competitive ABPP) and < 25% on PLA2G7 (gel-based competitive ABPP).
Take `O=C(NCCCCCc1ccccc1)n1cccn1` [Example 37, N-(5-phenylpentyl)-1H-pyrazole-1-carboxamide]: the inhibition at 10 µM on ABHD6, on FAAH, on MAGL and on PLA2G7 was < 25% in each case.
Consider `N#Cc1cnn(C(=O)N2CCN(Cc3ccc(C(=O)N4CCC4)cc3F)CC2)c1` [Example 285, 1-(4-(4-(Azetidine-1-carbonyl)-2-fluorobenzyl)piperazine-1-carbonyl)-1H-pyrazole-4-carbonitrile], for which the inhibition at 1 µM at ABHD6 (gel-based competitive ABPP), at FAAH (gel-based competitive ABPP), on MAGL (gel-based competitive ABPP) and at PLA2G7 (gel-based competitive ABPP) was > 75% throughout. Moreover, the inhibition at 10 µM on ABHD6 (gel-based competitive ABPP), at FAAH (gel-based competitive ABPP), at MAGL (gel-based competitive ABPP) and on PLA2G7 (gel-based competitive ABPP) was > 75% throughout.
